The source of these data is patent US10213413B2 (priority 2014, dated 2019).

Where two headings read alike, the source gives them in different places.

In series [1] the target is T1, N-NTD (N N-terminal region, residues 31 to 252) (Human respiratory syncytial virus A, UniProt P03418).
T1 construct: N N-terminal region (N-NTD, residues 31 to 252); made in house; host or cells: E. coli BL21(DE3)
The series can be described thus: NMR chemical shift perturbation titration (1H,15N-HSQC), dissociation constants. The class given is binding, respiratory syncytial virus (RSV). To be noted: 50 μM 15N-labeled N-NTD, two-site fast exchange model, 1:1 stoichiometry. The protocol: N-NTD samples uniformly labeled with stable isotopes for NMR measurements were produced in minimal M9 medium supplemented with 1 g/L ^15NH4Cl and 3 g/L unlabeled or ^13C-glucose. The protocols were adapted from rich medium: an initial preculture of 15 mL in LB medium was used to inoculate a 500 mL M9 culture grown to saturation, and 500 mL of fresh M9 medium were added before induction. Purification was carried out as described above and followed by a final dialysis step to exchange the sample into NMR buffer (20 mM MES pH 6.5, 250 mM NaCl, 1.5 mM TCEP). A U-^13C, ^15N, 70%-^2H labeled N-NTD sample was prepared by starting from a 100 mL preculture in LB medium, used to inoculate 1 L of unlabeled M9. […]
Chemical shift perturbation (CSP) experiments were carried out with 50 μM U-^15N labeled N-NTD on a 700 MHz Bruker Avance III spectrometer equipped with a TXI probe by adding increasing amounts of M61, M68, M72, M76 and M81 from concentrated stock solutions (25, 10 or 5 mM) in ethanol. […] Dissociation constants were determined for a given residue, assuming a two-site fast exchange model with a 1:1 stoichiometry, by fitting the chemical shift difference (δ−δfree) as a function of molar ratios in Origin 7 software (OriginLab).
Combined ^1H and ^15N CSPs were calculated from: Δδ^1H^15N=√{square root over ((δ1H−δ1H^free)^2+(δ15N−δ15N^free)^2/100)}. […]

Series [2] has as its target T2, N-NTD (Human respiratory syncytial virus A, UniProt P03418).
T2 construct: N N-terminal region (N-NTD, residues 31 to 252); made in house; host or cells: E. coli BL21(DE3)
The series can be described thus: Isothermal titration calorimetry. The class given is binding, respiratory syncytial virus (RSV). The note with it: 18° C.; for Kd: 20 mM Tris-HCl pH 8, 150 mM NaCl, 5% Ethanol, 30 μM N-NTD, read-out: Kd (ITC); for ΔH (binding enthalpy, ITC) / −TΔS (entropic contribution, ITC): 1:1 interaction model. The protocol: ITC experiments were performed using the high precision VP-ITC system (MicroCal, GE Healthcare) and quantified with the Origin7 software provided by the manufacturer. All molecules were dissolved in 20 mM Tris-HCl, pH 8, 150 mM NaCl, 5% Ethanol and the binding enthalpies were measured by injecting the M76 or M61 solutions at 1.5 mM into calorimetric cell containing 30 μM N-NTD solution. Titrations were performed at 18° C. with 7 μl injections of M76 or M61 ligands every 350s. Heat signals were corrected for the heats of dilution and normalized to the amount of compound injected. Binding stoichiometries, enthalpy values and equilibrium dissociation constants were determined by fitting the corrected data to a 1:1 interaction model using the Origin7 software (OriginLab).
In parallel, the inventors investigated the properties of binding abilities of the di-substituted M76- and unsubstituted M61 to N-NTD by ITC. The purified N-NTD domain was loaded into the calorimeter cell and titrated with the compounds.
For orientation: ITC needs no label: the signal is the heat of the interaction.

Series [3] addresses T3, P-CTD/N-NTD interaction (Human respiratory syncytial virus A, UniProt P03418).
T3 construct: N N-terminal region (N-NTD, residues 31 to 252); made in house; host or cells: E. coli BL21(DE3)
The series can be described thus: Surface plasmon resonance competition assay (N-NTD binding to captured GST-P-CTD). Set-up: species or system respiratory syncytial virus (RSV). The note with it: 25° C., 20 mM TrisHCl pH 8, 150 mM NaCl, N-NTD 20 μM; read-out: Ki (inhibition of P-CTD/N-NTD interaction, SPR). The protocol:
The assays were carried out at 25° C. in a buffer 20 mM TrisHCl, pH 8, 150 mM NaCl.
A goat anti-GST antibody (Biacore GST Capture Kit) was covalently coupled to a CMS sensorchip, using a Biacore 2000 instrument and the Amine Coupling Kit (GE Healthcare), reaching an immobilization density of around 10000 resonance units (RU; 1RU≈1 pg.mm-2). This surface was used to capture tightly GST-fused P-CTD to a density of 1200-1300 RU, or GST (800 RU) as a control. N-NTD (20 μM), alone or mixed and equilibrated for over 2 hours with the different inhibitor candidates (concentration range: 5-750 μM), was then injected over the GST-P-CTD and GST surfaces for one minute at a flow rate of […]. After each injection, the interaction buffer was flowed on the surface until all the N-NTD molecules dissociated (taking advantage of the transient nature of the N-NTD/P-CTD interaction). At the end of the series, the surfaces were regenerated with a 2-min 10 mM glycine-HCl (pH 1.5) wash and two 1-min washes with 0.05% SDS and 20 mM NaOH. The real-time interaction profiles were double referenced using the Scrubber 2.0 software (BioLogic Software), that is both the signals from the reference surface (with GST captured on the anti-GST antibody) and from blank experiments using the compounds alone were subtracted. The steady-state SPR responses (Req) were plotted against the compound concentration C and fitted using the BIAevaluation 4.1 software (GE Healthcare), according to the following equation:
[formula] where is the concentration of N-NTD (20 μM) and R0 the steady-state SPR response for N-NTD alone, allowing to determine the inhibition constants Ki for each compound. Isothermal Titration Calorimetry
SPR signals are proportional to the molecular weight of the analytes and therefore, given the small molecular weight of selected compounds, direct binding between N-NTD and BPdC would have too small signals on the used instrument. Instead, the inventors resorted to indirect competition assays to assess the effect of BPdC on the interaction between surface-bound P-CTD and N-NTD. The inventors first characterized by SPR the specific interactions between P-CTD in fusion with GST (GST-P-CTD) and N-NTD. GST-P-CTD was immobilized on an anti-GST antibody surface and serial dilutions of N-NTD were injected. The interaction between the two domains was transient, with a very fast dissociation rate (koff>1 s^−1) and a Kd of 30 μM. Competition experiments were then performed with the BPdC compounds. […] Both compounds carried a specific Cl substituent in ortho on the benzyl ring, but addition of another Cl atom in para position, on M76, somewhat enhanced inhibition. […] The inhibitory properties of the compounds were directly related to their affinities for N-NTD with M72<M61<M68<M81<M76.
In general terms: In SPR one partner is held on a chip, and binding of the other changes the refractive index at the surface.

For series [4], the system named is rHRSV-mCherry. The class given is cell-based, recombinant human RSV. The note with it: 48 h, HEp-2 cells. The protocol: (§1) DMSO dilutions in the same range were also used as controls. HEp-2 cells (ATCC number CCL-23) were seeded at 5×10^4 cells per well in 96-well plates the day before. Infection was carried out with 500 pfu of rHRSV-mCherry in MEM without phenol red. 2 h after infection, the medium was changed to MEM with 2% fetal calf serum and without phenol red. Compound dilutions were pre-incubated with viral suspensions for 5 min at 37° C. before addition on cell monolayers in the 96-well plates.
Fluorescence, expressed in relative fluorescence units, was measured using a spectrofluorimeter (Tecan infinite M200PRO) with excitation and emission wavelengths of 580 and 620 nm, respectively. Non-infected HEp-2 cells were used a standard for fluorescence background level.

The test system of series [5] is HEp-2 cells. The series can be described thus: CellTiter-Glo Luminescent cell viability assay (cytotoxicity). The class given is cell-based. The note with it: 48 h. The protocol: as §1, with “Compound M76b was solubilized at 10 mM in 100% v/v DMSO and further diluted in water to 1 mM, then serially diluted threefold in minimum essential medium (MEM) without phenol red (Gibco) to a final concentration of 5 nM. DMSO” for “DMSO”, “plates. After treatment with compound M76b in DMSO or with DMSO alone, plates were incubated at 37° C. and 5% CO2 for 48 h.” for “plates.”
Cytotoxicity was assayed with the CellTiter-Glo Luminescent cell viability assay (Promega) after 48 h of incubation with DMSO alone or threefold dilutions of compound M76 in DMSO from 1 mM to 12 μM.

T2 sequence (P03418 31-252): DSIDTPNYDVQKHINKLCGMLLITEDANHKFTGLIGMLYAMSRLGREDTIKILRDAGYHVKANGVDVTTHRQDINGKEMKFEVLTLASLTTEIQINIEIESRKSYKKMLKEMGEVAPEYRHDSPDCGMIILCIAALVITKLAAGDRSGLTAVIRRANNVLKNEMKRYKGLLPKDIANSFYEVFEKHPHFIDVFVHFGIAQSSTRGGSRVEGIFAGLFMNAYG
T3 sequence (P03418 31-252): as above
T1 sequence (P03418 31-252): as above

As usually defined, the Kd is the concentration at which binding is half-saturated. Turning to `O=C(O)c1cc(C(=O)O)n(Cc2ccc(Cl)cc2Cl)n1` [M76, 1-(2,4-dichloroBenzyl)-pyrazole-3,5-dicarboxylate], the Kd in series [1] turned out to be 20 µM. In series [2], the Kd is 48 ± 8 µM; the “ΔH (binding enthalpy, ITC)” value was -11.0 ± 3.6 kcal/mol; the “−TΔS (entropic contribution, ITC)” value stood at 5.4 ± 3.8 kcal/mol. Also, the Ki in series [3] worked out at 155 ± 25 µM.
Consider `CC(=O)OCOC(=O)c1cc(C(=O)OCOC(C)=O)n(Cc2ccc(Cl)cc2Cl)n1` [M76b], for which the relative fluorescence in series [4] (111 μM, relative to control without M76b and DMSO) is 40%; in series [4] (333 μM, relative to control without M76b and DMSO), “less than 20%”; in series [4] (concentrations under 12 μM), “above 80%”. For the same compound, the cell survival result in series [5] (111 μM) is on record as “more than 95%”; in series [5] (333 μM), 25%.
Take `O=C(O)c1cc(C(=O)O)n(Cc2ccc(F)cc2)n1` [M72, 1-(4-fluoroBenzyl)-pyrazole-3,5-dicarboxylate]: in series [1], the Kd was 680 µM. The Ki in series [3] came to 1660 ± 290 µM.
As for `O=C(O)c1cc(C(=O)O)n(Cc2ccc(Br)cc2)n1` [M68, 1-(4-bromoBenzyl)-pyrazole-3,5-dicarboxylate], in series [3], the Ki was determined as 610 ± 82 µM.
Take `O=C(O)c1cc(C(=O)O)n(Cc2ccccc2)n1` [M61, 1-(Benzyl)-pyrazole-3,5-dicarboxylate]: in series [2], the equilibrium dissociation constant (Kd) stood at 510 ± 170 µM; the “ΔH (binding enthalpy, ITC)” value was -6.42 ± 2.42 kcal/mol; the “−TΔS (entropic contribution, ITC)” value came out at 2.2 ± 1.8 kcal/mol. The Ki in series [3] was 893 ± 86 µM.
With `O=C(O)c1cc(C(=O)O)n(Cc2ccccc2Cl)n1` [M81, 1-(2-chloroBenzyl)-pyrazole-3,5-dicarboxylate], the Ki in series [3] was found to be 247 ± 39 µM.
